From ChEMBL document CHEMBL4680110 (2018) come the findings set out here.

Activity calls are given as the source filed them. Peptide text beside a SMILES is read from it. * marks the point of attachment. Bz = O=C(c1ccccc1)*

Assay [1] relates to Rattus norvegicus. The assay can be described thus: Analgesic activity in Sprague-Dawley rat model of PNL injury-induced neuropathic pain assessed as pain threshold elevation percentage at 15 nmol/kg, IM administered as single dose measured after 2 to 2.5 hrs post dose. The format is functional. Conditions: time 2-2.5 hrs.
The nature of assay [2]: Selectivity index, ratio of IC50 for inhibition of rat alpha9alpha10 nAChR expressed in Xenopus laevis oocytes to IC50 for activation of human GABAB1/GABAB2 expressed in HEK293 cells co-transfected with rat CaV2.2 channel assessed as reduction in CaV2.2-mediated peak Ba2+ current amplitude. It counts as cell-based.
For assay [3], the target named is T1, GABA-B receptor (Homo sapiens) (UniProt Q9UBS5+O75899). The assay can be described thus: Activation of human GABAB1/GABAB2 expressed in HEK293 cells co-transfected with rat CaV2.2 channel assessed as reduction in CaV2.2-mediated peak-current amplitude in response to depolarizing pulse at 1 nM by whole cell patch clamp assay relative to control. The format is cell-based. The conditions noted are these: HEK293T. A general note: The patch-clamp technique gives a direct electrical read-out from membranes.

Assay [4] concerns the target Nicotinic acetylcholine receptor alpha9/alpha10 (Rattus norvegicus, UniProt P43144+Q9JLB5). In words: Inhibition of rat alpha9alpha10 nAChR expressed in Xenopus laevis oocytes assessed as inhibition of Ach-induced response at -80 mV holding potential preincubated for 5 mins followed by Ach stimulation by two electrode voltage-clamp assay. The format is cell-based, Oocyte.

A further assay deals with GABA-B receptor (Homo sapiens, UniProt O75899+Q9UBS5). The assay can be described thus: Activation of human GABAB1/GABAB2 expressed in HEK293 cells co-transfected with rat CaV2.2 channel assessed as reduction in CaV2.2-mediated peak-current amplitude in response to the depolarizing pulse by whole cell patch clamp assay. It counts as cell-based, HEK293T.
Assay [5] has as its system Rattus norvegicus. In words: Analgesic activity in Sprague-Dawley rat model of PNL injury-induced neuropathic pain assessed as pain threshold elevation percentage at 0.3 nmol/kg, IM administered as single dose measured after 2 to 2.5 hrs post dose. The format is functional. The conditions noted are these: time 2-2.5 hrs.
Assay [6] addresses T1, GABA-B receptor (Homo sapiens). In words: Activation of human GABAB1/GABAB2 expressed in HEK293 cells co-transfected with rat CaV2.2 channel assessed as reduction in CaV2.2-mediated Ba2+ peak-current amplitude in response to depolarizing pulse in presence of 1 uM GABAB receptor antagonist CGP55845 by whole cell patch clamp assay. It counts as cell-based. The conditions noted are these: HEK293T, time 6.0 hrs.

The species named for assay [7] is Rattus norvegicus. In words: Inhibition of TTX-resistant sodium channel in Sprague-Dawley rat DRG neuron at 10 uM at 10 mV holding potential by whole cell patch clamp technique.
In assay [8] the test system is Rattus norvegicus. In words: Analgesic activity in Sprague-Dawley rat model of PNL injury-induced neuropathic pain assessed as pain threshold elevation percentage at 1.5 nmol/kg, IM administered as single dose measured after 2 to 2.5 hrs post dose. It counts as functional. The conditions noted are these: time 2-2.5 hrs.
Assay [9] can be described thus: Selectivity index, ratio of IC50 for inhibition of human alpha9alpha10 nAChR expressed in Xenopus laevis oocytes to IC50 for activation of human GABAB1/GABAB2 expressed in HEK293 cells co-transfected with rat CaV2.2 channel assessed as reduction in CaV2.2-mediated peak-current amplitude. The format is cell-based.
Assay [10] deals with Neuronal acetylcholine receptor; alpha9/alpha10 (Homo sapiens, UniProt Q9GZZ6+Q9UGM1). The assay can be described thus: Inhibition of human alpha9alpha10 nAChR expressed in Xenopus laevis oocytes assessed as inhibition of Ach-induced response at -80 mV holding potential preincubated for 5 mins followed by Ach stimulation by two electrode voltage-clamp assay. It counts as cell-based, Oocyte.

For assay [11], the system named is Rattus norvegicus. The assay can be described thus: Analgesic activity in Sprague-Dawley rat model of chronic constriction injury-induced neuropathic pain assessed as increase in pain threshold elevation percentage at 0.3 to 15 nmol/kg, IM administered as single dose measured after 2 to 2.5 hrs post dose. It counts as functional, organism-based. Conditions: dose 0.3-15 nmol/kg, time 2-2.5 hrs.

In the next assay the test system is Neuron. The assay can be described thus: Inhibition of TTX-sensitive sodium channel in Sprague-Dawley rat DRG neuron at 10 uM at -10 mV holding potential by whole cell patch clamp technique. The format is tissue-based.
Assay [12] concerns the target Neuronal acetylcholine receptor subunit alpha-7 (Rattus norvegicus) (UniProt Q05941). In words: Inhibition of rat alpha7 nAChR expressed in Xenopus laevis oocytes assessed as inhibition of Ach-induced response at 10 uM at -80 mV holding potential preincubated for 5 mins followed by Ach stimulation by two electrode voltage-clamp assay relative to control. The format is cell-based. Conditions: Oocyte. A general note: Two-electrode voltage clamp is typically applied to oocytes expressing channels or transporters.

Assay [13] addresses Neuronal acetylcholine receptor; alpha3/beta2 (Rattus norvegicus) (UniProt P04757+P12390). The assay can be described thus: Inhibition of rat alpha3beta2 nAChR expressed in Xenopus laevis oocytes assessed as inhibition of Ach-induced response at 10 uM at -80 mV holding potential preincubated for 5 mins followed by Ach stimulation by two electrode voltage-clamp assay relative to control. It counts as cell-based. The conditions noted are these: Oocyte.

Assay [14] has as its target Neuronal acetylcholine receptor; alpha2/beta4 (Rattus norvegicus) (UniProt P12389+P12392). The assay can be described thus: Inhibition of rat alpha2beta4 nAChR expressed in Xenopus laevis oocytes assessed as inhibition of Ach-induced response at 10 uM at -80 mV holding potential preincubated for 5 mins followed by Ach stimulation by two electrode voltage-clamp assay relative to control. It counts as cell-based. Conditions: Oocyte.

The target in assay [15] is Voltage-dependent N-type calcium channel subunit alpha-1B (Rattus norvegicus) (UniProt Q02294). In words: Inhibition of rat CaV2.2 channel expressed in HEK293T cells assessed as reduction in CaV2.2-mediated peak-current amplitude in response to depolarizing pulse at 10 uM by whole cell patch clamp assay relative to control. It counts as cell-based.
Assay [16] deals with Neuronal acetylcholine receptor; alpha4/beta2 (Rattus norvegicus) (UniProt P09483+P12390). In words: Inhibition of rat alpha4beta2 nAChR expressed in Xenopus laevis oocytes assessed as inhibition of Ach-induced response at 10 uM at -80 mV holding potential preincubated for 5 mins followed by Ach stimulation by two electrode voltage-clamp assay relative to control. The format is cell-based. The conditions noted are these: Oocyte.

Assay [17] concerns the target Neuronal acetylcholine receptor; alpha2/beta2 (Rattus norvegicus) (UniProt P12389+P12390). The assay can be described thus: Inhibition of rat alpha2beta2 nAChR expressed in Xenopus laevis oocytes assessed as inhibition of Ach-induced response at 10 uM at -80 mV holding potential preincubated for 5 mins followed by Ach stimulation by two electrode voltage-clamp assay relative to control. It counts as cell-based. Conditions: Oocyte.

In assay [18] the target is Neuronal acetylcholine receptor; alpha3/beta4 (Rattus norvegicus) (UniProt P04757+P12392). In words: Inhibition of rat alpha3beta4 nAChR expressed in Xenopus laevis oocytes assessed as inhibition of Ach-induced response at 10 uM at -80 mV holding potential preincubated for 5 mins followed by Ach stimulation by two electrode voltage-clamp assay relative to control. The conditions noted are these: Oocyte. It counts as cell-based.

The target of assay [19] is T1, GABA-B receptor (Homo sapiens). The assay can be described thus: Activation of human GABAB1/GABAB2 expressed in HEK293 cells co-transfected with rat CaV2.2 channel assessed as reduction in CaV2.2-mediated peak-current amplitude in response to depolarizing pulse at 1 nM in presence of with 10 uM baclofen by whole cell patch clamp assay relative to control. The format is cell-based. Conditions: HEK293T, filed as activator.

The subject of assay [20] is Rattus norvegicus. The assay can be described thus: Analgesic activity in Sprague-Dawley rat model of PNL injury-induced neuropathic pain assessed as pain threshold elevation percentage at 0.3 to 15 nmol/kg, IM administered as single dose measured after 2 to 2.5 hrs post dose. It counts as functional, organism-based. Conditions: dose 0.3-15 nmol/kg, time 2-2.5 hrs.

Sequence of Nicotinic acetylcholine receptor alpha9/alpha10 (P43144 whole entry): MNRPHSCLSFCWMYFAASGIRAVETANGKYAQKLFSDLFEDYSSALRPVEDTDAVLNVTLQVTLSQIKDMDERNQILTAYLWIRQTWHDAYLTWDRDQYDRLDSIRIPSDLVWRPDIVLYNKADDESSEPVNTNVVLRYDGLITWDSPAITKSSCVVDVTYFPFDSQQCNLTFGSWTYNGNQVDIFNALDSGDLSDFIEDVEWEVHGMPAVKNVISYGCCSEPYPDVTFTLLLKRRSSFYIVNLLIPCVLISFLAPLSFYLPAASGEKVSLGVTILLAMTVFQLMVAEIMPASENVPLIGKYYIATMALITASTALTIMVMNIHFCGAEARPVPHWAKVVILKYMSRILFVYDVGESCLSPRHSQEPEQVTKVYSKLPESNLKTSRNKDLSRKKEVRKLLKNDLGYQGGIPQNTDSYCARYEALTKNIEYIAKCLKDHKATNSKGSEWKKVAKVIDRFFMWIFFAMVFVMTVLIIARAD
Sequence of Nicotinic acetylcholine receptor alpha9/alpha10 (Q9JLB5 whole entry): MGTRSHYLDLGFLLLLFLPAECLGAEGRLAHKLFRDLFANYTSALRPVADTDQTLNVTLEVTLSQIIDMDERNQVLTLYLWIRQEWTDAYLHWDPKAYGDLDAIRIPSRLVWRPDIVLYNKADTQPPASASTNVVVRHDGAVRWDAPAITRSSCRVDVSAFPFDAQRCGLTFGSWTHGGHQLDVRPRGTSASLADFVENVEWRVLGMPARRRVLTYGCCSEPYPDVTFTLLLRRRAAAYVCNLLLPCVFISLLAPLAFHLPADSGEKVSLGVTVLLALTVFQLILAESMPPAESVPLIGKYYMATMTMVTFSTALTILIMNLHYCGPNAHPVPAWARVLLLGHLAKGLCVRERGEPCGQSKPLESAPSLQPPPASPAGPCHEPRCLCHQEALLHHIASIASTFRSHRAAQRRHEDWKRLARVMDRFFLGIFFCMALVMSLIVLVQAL
Sequence of GABA-B receptor (Q9UBS5 whole entry): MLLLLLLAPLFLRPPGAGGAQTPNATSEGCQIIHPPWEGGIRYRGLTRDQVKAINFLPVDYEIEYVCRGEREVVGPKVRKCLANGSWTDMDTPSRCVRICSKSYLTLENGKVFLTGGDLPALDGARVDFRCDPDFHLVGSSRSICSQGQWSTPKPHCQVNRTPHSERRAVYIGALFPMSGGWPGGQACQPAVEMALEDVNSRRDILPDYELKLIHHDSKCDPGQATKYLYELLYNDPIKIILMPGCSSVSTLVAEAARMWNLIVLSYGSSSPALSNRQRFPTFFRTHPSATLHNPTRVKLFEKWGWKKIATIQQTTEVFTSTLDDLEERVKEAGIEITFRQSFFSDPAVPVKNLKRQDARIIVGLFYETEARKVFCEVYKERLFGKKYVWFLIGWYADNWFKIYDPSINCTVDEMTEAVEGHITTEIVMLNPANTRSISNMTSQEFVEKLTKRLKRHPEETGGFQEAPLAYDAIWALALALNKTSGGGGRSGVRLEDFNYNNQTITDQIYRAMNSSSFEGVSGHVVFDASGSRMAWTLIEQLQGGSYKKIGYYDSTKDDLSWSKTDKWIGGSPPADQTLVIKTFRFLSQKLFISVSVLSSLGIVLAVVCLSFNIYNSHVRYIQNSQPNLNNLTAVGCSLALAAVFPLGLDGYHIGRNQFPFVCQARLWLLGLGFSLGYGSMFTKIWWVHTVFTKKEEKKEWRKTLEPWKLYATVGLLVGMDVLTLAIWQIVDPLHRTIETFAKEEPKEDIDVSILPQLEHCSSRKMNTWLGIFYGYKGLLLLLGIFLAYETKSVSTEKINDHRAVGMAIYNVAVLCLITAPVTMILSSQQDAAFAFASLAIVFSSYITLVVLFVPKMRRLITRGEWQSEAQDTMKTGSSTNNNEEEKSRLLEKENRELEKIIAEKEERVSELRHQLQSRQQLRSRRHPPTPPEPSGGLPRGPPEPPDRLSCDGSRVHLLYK
Sequence of GABA-B receptor (O75899 whole entry): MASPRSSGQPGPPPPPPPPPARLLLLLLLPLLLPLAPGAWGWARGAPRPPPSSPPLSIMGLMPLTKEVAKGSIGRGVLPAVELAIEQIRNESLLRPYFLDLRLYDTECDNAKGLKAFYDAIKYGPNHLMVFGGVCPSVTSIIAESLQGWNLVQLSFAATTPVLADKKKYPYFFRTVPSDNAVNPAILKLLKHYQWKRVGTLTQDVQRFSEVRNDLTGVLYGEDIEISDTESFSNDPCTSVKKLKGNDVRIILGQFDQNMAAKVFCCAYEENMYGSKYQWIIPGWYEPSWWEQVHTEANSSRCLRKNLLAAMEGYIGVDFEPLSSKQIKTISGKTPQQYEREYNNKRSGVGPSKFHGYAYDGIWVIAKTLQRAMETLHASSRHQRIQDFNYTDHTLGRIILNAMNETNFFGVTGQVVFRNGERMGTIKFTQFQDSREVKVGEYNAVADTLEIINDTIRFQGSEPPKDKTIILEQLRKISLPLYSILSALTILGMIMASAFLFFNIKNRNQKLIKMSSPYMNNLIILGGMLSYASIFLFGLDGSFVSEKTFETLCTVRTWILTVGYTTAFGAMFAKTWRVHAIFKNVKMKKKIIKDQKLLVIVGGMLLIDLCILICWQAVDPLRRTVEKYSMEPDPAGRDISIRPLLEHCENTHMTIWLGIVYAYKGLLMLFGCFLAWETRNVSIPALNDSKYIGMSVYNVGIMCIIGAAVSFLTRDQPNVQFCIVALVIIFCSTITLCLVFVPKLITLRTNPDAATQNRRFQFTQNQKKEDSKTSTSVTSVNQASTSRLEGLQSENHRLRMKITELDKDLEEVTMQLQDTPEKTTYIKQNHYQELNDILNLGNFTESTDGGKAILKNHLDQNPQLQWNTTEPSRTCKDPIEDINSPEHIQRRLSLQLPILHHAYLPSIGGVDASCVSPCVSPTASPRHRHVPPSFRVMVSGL
Sequence of Neuronal acetylcholine receptor; alpha9/alpha10 (Q9UGM1 whole entry): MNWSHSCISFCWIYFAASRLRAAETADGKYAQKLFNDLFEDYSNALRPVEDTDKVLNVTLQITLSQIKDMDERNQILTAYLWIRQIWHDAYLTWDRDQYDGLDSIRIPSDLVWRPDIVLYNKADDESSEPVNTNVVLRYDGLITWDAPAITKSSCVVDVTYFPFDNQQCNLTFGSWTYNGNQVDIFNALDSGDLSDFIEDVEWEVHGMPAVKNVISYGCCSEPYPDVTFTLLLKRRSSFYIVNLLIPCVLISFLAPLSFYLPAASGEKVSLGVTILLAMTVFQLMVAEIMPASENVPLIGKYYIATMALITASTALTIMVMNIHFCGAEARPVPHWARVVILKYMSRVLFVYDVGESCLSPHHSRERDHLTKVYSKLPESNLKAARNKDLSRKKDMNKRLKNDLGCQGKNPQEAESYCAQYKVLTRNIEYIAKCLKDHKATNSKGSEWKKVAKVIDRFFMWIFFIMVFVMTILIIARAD
Sequence of Neuronal acetylcholine receptor; alpha9/alpha10 (Q9GZZ6 whole entry): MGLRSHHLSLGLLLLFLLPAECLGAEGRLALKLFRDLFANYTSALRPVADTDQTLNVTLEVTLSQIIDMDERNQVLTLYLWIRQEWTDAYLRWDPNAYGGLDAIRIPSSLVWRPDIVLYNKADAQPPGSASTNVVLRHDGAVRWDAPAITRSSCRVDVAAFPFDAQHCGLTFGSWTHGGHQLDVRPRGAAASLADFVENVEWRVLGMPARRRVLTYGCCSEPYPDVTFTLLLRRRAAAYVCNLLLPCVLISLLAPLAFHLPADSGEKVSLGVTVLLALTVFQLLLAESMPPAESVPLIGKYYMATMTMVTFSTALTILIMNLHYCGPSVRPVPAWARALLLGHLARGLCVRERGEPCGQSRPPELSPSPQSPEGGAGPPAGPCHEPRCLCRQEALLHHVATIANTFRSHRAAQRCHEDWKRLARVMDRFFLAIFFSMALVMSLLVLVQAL
Sequence of Neuronal acetylcholine receptor subunit alpha-7 (Rattus norvegicus) (Q05941 whole entry): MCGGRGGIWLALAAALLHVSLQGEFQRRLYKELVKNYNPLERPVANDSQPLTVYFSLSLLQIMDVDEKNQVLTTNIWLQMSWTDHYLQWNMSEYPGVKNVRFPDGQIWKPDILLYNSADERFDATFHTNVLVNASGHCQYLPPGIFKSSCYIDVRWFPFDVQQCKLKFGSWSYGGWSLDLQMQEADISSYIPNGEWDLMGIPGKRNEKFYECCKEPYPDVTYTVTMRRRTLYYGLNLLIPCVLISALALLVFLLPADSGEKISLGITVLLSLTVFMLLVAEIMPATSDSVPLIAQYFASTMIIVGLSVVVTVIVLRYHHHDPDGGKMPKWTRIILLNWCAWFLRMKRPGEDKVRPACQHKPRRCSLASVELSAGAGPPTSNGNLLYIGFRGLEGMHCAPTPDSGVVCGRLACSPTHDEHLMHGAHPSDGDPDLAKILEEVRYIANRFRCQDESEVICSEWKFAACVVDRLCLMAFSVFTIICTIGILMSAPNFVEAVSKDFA

In general, inhibition refers to the relative decrease from the control value, in per cent. The IC50 is the concentration that inhibits the measured activity by half. For the compound `CC[C@H](C)[C@H](NC(=O)[C@H](CCC(=O)O)NC(=O)[C@@H]1CCCN1C(=O)[C@H](Cc1cnc[nH]1)NC(=O)[C@H](CC(=O)O)NC(=O)[C@H](Cc1ccc(O)cc1)NC(=O)[C@H](CC(N)=O)NC(=O)[C@H](CS)NC(=O)[C@H](CCCNC(=N)N)NC(=O)[C@@H]1CCCN1C(=O)[C@H](CC(=O)O)NC(=O)[C@H](CO)NC(=O)[C@H](CS)NC(=O)[C@H](CS)NC(=O)CN)C(=O)N[C@@H](CS)C(N)=O`, the Activity is 51.1% in the assay on Rattus norvegicus [1], 12.2% in the assay on Rattus norvegicus [5] and 25.6% in the assay on Rattus norvegicus [8]. The Ratio IC50 in assay [2] came out at 11.8; in assay [9], 417. Besides, the inhibition in [3] came out at 18.8%. Also, the half-inhibitory concentration (IC50) is 0.0283 µM in assay [4], 0.0024 µM at GABA-B receptor and 1 µM in assay [10]. In addition, the outcome in assay [6] was inactive. Moreover, the inhibition result in the assay listed under Rattus norvegicus [7] and with Neuron was “inactive” in each case. Besides, the outcome in the assay with Rattus norvegicus [11] was Active.
In the case of `CC[C@H](C)[C@H](NC(=O)[C@H](CCC(=O)O)NC(=O)[C@@H]1CCCN1C(=O)[C@H](Cc1cnc[nH]1)NC(=O)[C@H](CC(=O)O)NC(=O)[C@H](Cc1ccc(O)cc1)NC(=O)[C@H](CCCNC(=N)N)NC(=O)[C@H](CS)NC(=O)[C@H](CCCNC(=N)N)NC(=O)[C@@H]1CCCN1C(=O)[C@H](CC(=O)O)NC(=O)[C@H](CO)NC(=O)[C@H](CS)NC(=O)[C@H](CS)NC(=O)CNC(=O)c1ccccc1)C(=O)N[C@@H](CS)C(N)=O` (Bz-GCCSDPRCRYDHPEIC-NH2), the inhibition in [12] is more than 50%; in assay [13], more than 50%; in assay [14], more than 50%; in assay [15] it was 2.2%; in assay [16], more than 50%; in assay [3], 39.7%. Besides, the inhibition in assay [17] is more than 50%; in [18], more than 50%; in [19], 67.4%. In addition, the Activity in the assay on Rattus norvegicus [1] was determined as 80%. In addition, the results for the Ratio IC50 in [2] and in [9] were 4380 and more than 25000, respectively. For the same compound, the IC50 was determined as 0.875 µM in assay [4], 0.0002 µM at GABA-B receptor and 5.93 µM in [10]. Further, the result in [6] was inactive. Besides, the inhibition result in the assay listed under Rattus norvegicus [7] and in the assay on Neuron was “inactive” each time.
As to `CC[C@H](C)[C@H](NC(=O)[C@H](CCC(=O)O)NC(=O)[C@@H]1CCCN1C(=O)[C@H](Cc1cnc[nH]1)NC(=O)[C@H](CC(=O)O)NC(=O)[C@H](Cc1ccc(O)cc1)NC(=O)[C@H](CCCNC(=N)N)NC(=O)[C@H](CS)NC(=O)[C@H](CCCNC(=N)N)NC(=O)[C@@H]1CCCN1C(=O)[C@H](CC(=O)O)NC(=O)[C@H](CO)NC(=O)[C@H](CS)NC(=O)[C@H](CS)NC(=O)CN)C(=O)N[C@@H](CS)C(N)=O` (H-GCCSDPRCRYDHPEIC-NH2), the inhibition in [12] was more than 50%; in assay [13] it was more than 50%; in assay [14] it was more than 50%; in assay [16], more than 50%; in [3], 19.6%; in assay [17], more than 50%. For the same compound, in [18], the inhibition is more than 50%. Moreover, the Activity in the assay on Rattus norvegicus [1] is 85%; in the assay with Rattus norvegicus [20] it was “Dose-dependent effect”; in the assay with Rattus norvegicus [5], 16.7%; in the assay on Rattus norvegicus [8], 47.2%. Moreover, the Ratio IC50 amounted to 1000 in [2] and 74.1 in assay [9]. The IC50 is 4.9 µM in assay [4], 0.0049 µM at GABA-B receptor and 0.363 µM in [10]. Moreover, in assay [6], the result was inactive. Moreover, the inhibition result in the assay filed under Rattus norvegicus [7] and with Neuron was “inactive” in each case. Also, the outcome with Rattus norvegicus [11] was Active.
